Data set [1] has as its system Pseudomonas aeruginosa. Description: Antibacterial activity against Pseudomonas aeruginosa BAA 427 assessed as resistance development by measuring fold change in MIC after 30 passages with serially diluted peptides. Type of data set: functional.
Data set [2] is described as follows: (§1) Disruption of membrane integrity in human RBC cells assessed as membrane damage at 150 uM incubated for 15 min by Alexa fluor-annexin V staining based assay (reference value: 0%). Type of data set: functional, Red blood cell. The following applies: 0.25 h.
Data set [3] concerns Staphylococcus aureus. Kind of data set: Antimicrobial activity against Staphylococcus aureus ATCC 25923 assessed as inhibition of bacterial growth by broth dilution method. Type of data set: functional.
Another data set deals with Klebsiella pneumoniae. Description: Antimicrobial activity against Klebsiella pneumoniae ATCC 27736 assessed as inhibition of bacterial growth by broth dilution method. Type of data set: functional.
In data set [4] the test system is Pseudomonas aeruginosa. Description: Antimicrobial activity against Pseudomonas aeruginosa ATCC BAA-427 assessed as inhibition of bacterial growth by broth dilution method. Type of data set: functional.
The test system of data set [5] is Staphylococcus aureus. Description: Antimicrobial activity against multidrug-resistant Staphylococcus aureus ATCC BAA-44 assessed as inhibition of bacterial growth by broth dilution method. Type of data set: functional.
For data set [6], the system named is Escherichia coli. Description: Antibacterial activity against Escherichia coli ATCC 25922 in presence of 150 mM NaCl measured after 1 hr. Type of data set: functional.
Data set [7] deals with Escherichia coli. Kind of data set: Antibacterial activity against Escherichia coli ATCC 25922 in presence of 10 percent fresh human serum measured after 1 hr. Type of data set: functional.
Data set [8] has as its system Escherichia coli. Kind of data set: Antibacterial activity against Escherichia coli ATCC 25922 in presence of 4.5 mM KCl measured after 1 hr. Type of data set: functional.
Data set [9] concerns Escherichia coli. Description: Antibacterial activity against Escherichia coli ATCC 25922 in presence of temperature ranging from 4 to 90 degC measured after 1 hr. Type of data set: functional.
Data set [10] deals with Escherichia coli. Kind of data set: Antimicrobial activity against Escherichia coli ATCC 25922 assessed as inhibition of bacterial growth by broth dilution method. Type of data set: functional.
Data set [11] has as its system Cell membrane. Kind of data set: Induction of membrane damage in Escherichia coli assessed as disruption of membrane integrity at 10 uM incubated for 30 min by propidium iodide staining based assay.
Data set [12] in a line: Hemolytic activity in human RBC measured after 40 mins. The following applies: red blood cells (RBC). Type of data set: ADME, tissue-based, Erythrocyte.
The subject of a further data set is Bacillus subtilis. Description: Antimicrobial activity against Bacillus subtilis ATCC 6633 assessed as inhibition of bacterial growth by broth dilution method. Type of data set: functional.
Data set [13] can be described thus: Retention time of the compound analysed by RP-HPLC analysis. Type of data set: physicochemical.
Data set [14] has as its system Staphylococcus aureus. Kind of data set: Antimicrobial activity against methicilin- resistant Staphylococcus aureus ATCC 33591 assessed as inhibition of bacterial growth by broth dilution method. Type of data set: functional.
A short description of data set [15]: Acute toxicity in BALB/c mouse assessed as survival at 20 mg/kg administered intravenously measured after 7 days. Type of data set: organism-based. The following applies: in vivo, iv, 168 h, time 7 day.
Data set [16] has as its system Cell membrane. Kind of data set: Disruption of plasma membrane in Staphylococcus aureus ATCC 25923 at 10 uM by SYTOX-green uptake assay. Type of data set: cell membranes. The following applies: TDE = time-dependent effect.
Data set [17] concerns Mycobacterium tuberculosis. Description: Anti-mycobacterial activity against Mycobacterium tuberculosis H37Ra assessed as growth inhibition at 16.13 uM relative to control. Type of data set: functional.
Data set [18] concerns Mycolicibacterium smegmatis. Kind of data set: Anti-mycobacterial activity against Mycobacterium smegmatis infected in human THP-1 cells assessed as reduction in CFU at 24.19 uM after 24 hrs. Type of data set: functional.
The nature of data set [19]: Stability of the compound in human serum assessed as intact compound remaining at 2 mg/ml measured after 60 mins by […] analysis. Type of data set: ADME, cell-free. The following applies: read-out: Stability.
The test system of data set [20] is Mycolicibacterium smegmatis. Kind of data set: Anti-mycobacterial activity against Mycobacterium smegmatis infected in human THP-1 cells assessed as reduction in CFU at 40.13 uM after 24 hrs. Type of data set: functional.
A further data set deals with Lipid bilayer. Kind of data set: Induction of membrane depolarization in mammalian mimetic PC/Chol vesicles assessed as membrane permeabilization.
Data set [21] in a line: Acute toxicity in BALB/c mouse assessed as survival at 30 mg/kg administered intravenously measured after 7 days. Type of data set: organism-based. The following applies: in vivo, iv, 168 h, time 7 day.
Data set [22] can be described thus: Permeability of the compound in PC/PG lipid vesicles by spectrofluorometry. Type of data set: ADME.
The subject of data set [23] is Mycolicibacterium smegmatis. Kind of data set: Anti-mycobacterial activity against Mycobacterium smegmatis assessed as growth inhibition at 16.13 uM relative to control. Type of data set: functional.
The subject of another data set is Red blood cell. Described as §1. Type of data set: functional.
Data set [24] deals with Escherichia coli. Description: Bactericidal activity against Escherichia coli ATCC 25922 assessed as bacterial killing at 5 times MIC measured after 60 min. Type of data set: functional, organism-based.
Data set [25] has as its system Pseudomonas aeruginosa. Description: Antibacterial activity against Pseudomonas aeruginosa infected in Balb/c mouse stomach assessed as animal survival at 100 mg/kg, ip after 7 days. Type of data set: functional. The following applies: 168 h, time 7 day.

In brackets after ≈: the same amount, converted by molar mass. Activity calls are given as the source filed them. The rule behind the calls is not given here. Where a SMILES comes first, the peptide text is derived from it.

As to `O=C(O)c1cn(C2CC2)c2cc(N3CCNCC3)c(F)cc2c1=O` [CIPROFLOXACIN], in the data set with Pseudomonas aeruginosa [1], the “fold change (FC)” value is recorded as 64.
Take `CC[C@H](C)[C@H](NC(=O)CN)C(=O)NCC(=O)N[C@@H](C)C(=O)N[C@H](C(=O)N[C@@H](CC(C)C)C(=O)N[C@@H](CCCCN)C(=O)N[C@H](C(=O)N[C@@H](CC(C)C)C(=O)N[C@H](C(=O)N[C@H](C(=O)NCC(=O)N[C@@H](CC(C)C)C(=O)N1CCC[C@H]1C(=O)N[C@@H](C)C(=O)N[C@@H](CC(C)C)C(=O)N[C@H](C(=O)N[C@@H](CO)C(=O)N[C@@H](Cc1c[nH]c2ccccc12)C(=O)N[C@H](C(=O)N[C@@H](CCCCN)C(=O)N[C@@H](CCCNC(=N)N)C(=O)N[C@@H](CCCCN)C(=O)N[C@@H](CCCNC(=N)N)C(=O)N[C@@H](CCC(N)=O)C(=O)N[C@@H](CCC(N)=O)C(N)=O)[C@@H](C)CC)[C@@H](C)CC)[C@@H](C)O)[C@@H](C)O)C(C)C)C(C)C` [MELITTIN]: the Activity in data set [2] came out at 99.6%.
`CCn1cc(C(=O)O)c(=O)c2cc(F)c(N3CCNCC3)cc21` [NORFLOXACIN]: the MIC in the data set with Staphylococcus aureus [3] amounted to 1.22 µM (≈ 0.39 µg/mL); with Klebsiella pneumoniae, 0.15 µM (≈ 0.0479 µg/mL); in the data set on Pseudomonas aeruginosa [4], 1.22 µM (≈ 0.39 µg/mL); in the data set on Staphylococcus aureus [5], 2.44 µM (≈ 0.779 µg/mL).
With `CC(C)C[C@H](NC(=O)[C@H](CCCNC(=N)N)NC(=O)CNC(=O)[C@H](CC(C)C)NC(=O)[C@@H](NC(=O)[C@H](CCCCN)NC(=O)[C@@H](NC(=O)[C@H](CC(C)C)NC(=O)[C@H](CCCNC(=N)N)NC(=O)CNC(=O)[C@H](CC(C)C)NC(=O)[C@@H](NC(=O)[C@H](N)CCCCN)C(C)C)C(C)C)C(C)C)C(=O)N[C@H](C(N)=O)C(C)C`, the minimum inhibitory concentration (MIC) in the data set on Escherichia coli [6] turned out to be 2 µM; in the data set on Escherichia coli [7], 1 µM; with Escherichia coli [8], 4 µM; in the data set with Escherichia coli [9] it was 2 µM; in the data set with Escherichia coli [10] it was 0.5 µM (≈ 0.775 µg/mL); with Bacillus subtilis, 2 µM (≈ 3.1 µg/mL). Besides, the MIC with Staphylococcus aureus [3] stood at 2 µM (≈ 3.1 µg/mL); in the data set on Klebsiella pneumoniae it was 4 µM (≈ 6.2 µg/mL); in the data set with Pseudomonas aeruginosa [4] it was 4 µM (≈ 6.2 µg/mL); with Staphylococcus aureus [5] it was 2 µM (≈ 3.1 µg/mL); in the data set with Staphylococcus aureus [14] it was 1 µM (≈ 1.55 µg/mL). For the same molecule, the result in the data set with Cell membrane [11] was Active. This molecule also registered an HC50 at 40 min in data set [12] of 165 µM. In [13], this molecule returned a Retention_time of 18.8 min. In data set [2], the Activity is 99.1%.
As to `CC(C)C[C@H](NC(=O)[C@H](CCCNC(=N)N)NC(=O)CNC(=O)[C@H](CC(C)C)NC(=O)[C@@H](NC(=O)[C@@H](CCCCN)NC(=O)[C@@H](NC(=O)[C@H](CC(C)C)NC(=O)[C@H](CCCNC(=N)N)NC(=O)CNC(=O)[C@H](CC(C)C)NC(=O)[C@@H](NC(=O)[C@H](N)CCCCN)C(C)C)C(C)C)C(C)C)C(=O)N[C@H](C(N)=O)C(C)C`, the MIC in the data set on Escherichia coli [6] was determined as 1 µM; in the data set on Escherichia coli [7], 2 µM; in the data set on Escherichia coli [8], 2 µM; in the data set on Escherichia coli [9], 2 µM; with Escherichia coli [10], 1 µM (≈ 1.55 µg/mL); in the data set with Bacillus subtilis, 2 µM (≈ 3.1 µg/mL). The MIC in the data set on Staphylococcus aureus [3] came out at 2 µM (≈ 3.1 µg/mL); with Klebsiella pneumoniae, 4 µM (≈ 6.2 µg/mL); in the data set on Pseudomonas aeruginosa [4], 4 µM (≈ 6.2 µg/mL); in the data set on Staphylococcus aureus [5], 2 µM (≈ 3.1 µg/mL); with Staphylococcus aureus [14] it was 2 µM (≈ 3.1 µg/mL). Moreover, the result with Cell membrane [11] was Active. Besides, in data set [12], the HC50 at 40 min was determined as 1930 µM. The same molecule displayed a Retention_time in data set [13] of 16.5 min. Besides, the Activity in data set [2] stood at 13.9%.
In the case of `CC(C)C[C@H](NC(=O)[C@H](CCCNC(=N)N)NC(=O)CNC(=O)[C@H](CC(C)C)NC(=O)[C@@H](NC(=O)[C@@H](N)CCCCN)C(C)C)C(=O)N[C@H](C(N)=O)C(C)C` (H-KVLGRLV-NH2), the minimum inhibitory concentration (MIC) in the data set on Escherichia coli [10], with Bacillus subtilis, in the data set with Staphylococcus aureus [3], with Klebsiella pneumoniae, in the data set with Pseudomonas aeruginosa [4] and with Staphylococcus aureus [5] was over 100 µM in each case. For the same molecule, the minimal inhibitory concentration (MIC) in the data set with Staphylococcus aureus [14] was over 100 µM. The same molecule registered a Retention_time in data set [13] of 8.1 min.
Take GENTAMICIN: in the data set with Pseudomonas aeruginosa [1], the fold change (FC) worked out at 16. The minimum inhibitory concentration (MIC) in the data set on Staphylococcus aureus [3] is 0.67 µM; in the data set on Pseudomonas aeruginosa [4], 1.35 µM; in the data set with Staphylococcus aureus [5] it was 1.35 µM.
For the molecule `CC(C)C[C@H](NC(=O)[C@H](CCCNC(=N)N)NC(=O)CNC(=O)[C@H](CC(C)C)NC(=O)[C@@H](NC(=O)[C@H](CCCCN)NC(=O)[C@@H](NC(=O)[C@H](CC(C)C)NC(=O)[C@H](CCCNC(=N)N)NC(=O)CNC(=O)[C@H](CC(C)C)NC(=O)[C@@H](NC(=O)[C@@H](N)CCCCN)C(C)C)C(C)C)C(C)C)C(=O)N[C@H](C(N)=O)C(C)C`, the Activity result in data set [15] is “Non-Toxic”; in the data set on Cell membrane [16], “Tde”; in [21] it was “Non-Toxic”; in [22], “Active”; in data set [2], 96.5%. Further, the inhibition at 16.13 µM in data set [17] and in data set [23] was 80% in each case. The inhibition at 24.19 µM in data set [18] was determined as 20%. Also, the MIC in the data set with Escherichia coli [6] was determined as 2 µM; with Escherichia coli [7], 2 µM; in the data set on Escherichia coli [8], 2 µM; in the data set with Escherichia coli [9], 2 µM; in the data set with Escherichia coli [10], 1 µM (≈ 1.55 µg/mL); in the data set with Bacillus subtilis, 2 µM (≈ 3.1 µg/mL). In addition, the MIC with Staphylococcus aureus [3] worked out at 2 µM (≈ 3.1 µg/mL); in the data set on Klebsiella pneumoniae it was 4 µM (≈ 6.2 µg/mL); in the data set with Pseudomonas aeruginosa [4], 4 µM (≈ 6.2 µg/mL); in the data set on Staphylococcus aureus [5], 2 µM (≈ 3.1 µg/mL); in the data set with Staphylococcus aureus [14] it was 1 µM (≈ 1.55 µg/mL). Further, the remaining at 1 h, 2 mg/ml in data set [19] worked out at 51%. For the same molecule, the outcome in the data set on Cell membrane [11], with Red blood cell and in the data set with Escherichia coli [24] was Active. Besides, in data set [12], the HC50 at 40 min came out at 429 µM. The “fold change (FC)” value in the data set on Pseudomonas aeruginosa [1] came to 8. The inhibition at 40.13 µM in data set [20] turned out to be 40%. For the same molecule, in the data set with Lipid bilayer, the outcome was inactive. In data set [13], this molecule came in with a Retention_time of 16 min.
On to `CN(C)[C@@H]1C(O)=C(C(N)=O)C(=O)[C@@]2(O)C(O)=C3C(=O)c4c(O)cccc4C(C)(O)[C@H]3C[C@@H]12` (stereo partly drawn), for which the “fold change (FC)” value in the data set on Pseudomonas aeruginosa [1] is 16.
Consider `C[C@H]1COc2c(N3CCN(C)CC3)c(F)cc3c(=O)c(C(=O)O)cn1c23` [LEVOFLOXACIN], for which the survival at 100 mg/kg with Pseudomonas aeruginosa [25] is 100%.
